Each structure is given as a SMILES string.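 Cells were grown in 96-well plates and exposed to each compound for 48 hours at five concentrations; endpoints were interpolated linearly between bracketing concentrations, or set to the highest concentration if not reached. GI50 marks 50% less growth.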 Activity calls are given as the source filed them. No stated cut-off is given here; in the data, active = GI50 up to about 1.1 µM and inactive = higher.

Among the test systems are LOX IMVI; EKVX; RXF 393; HOP-62; UACC-62; SF-295; KM12; NCI-H226; CAKI-1; UACC-257; HT-29; SF-268; MDA-MB-435; OVCAR-5; HCT-15; OVCAR-8; SN12C; CCRF-CEM; MCF7; K562.
Common to all, as to assay: NCI tumour cell line growth inhibition, 48 h

In the case of `N=C(N)NCCN1CC2CCC(CC2)C1`, the GI50 in the assay with LOX IMVI, in the assay on EKVX, with RXF 393, in the assay on HOP-62, in the assay with UACC-62 and in the assay with SF-295 was > 100 µM (inactive) each time. Moreover, the GI50 in the assay with KM12 was > 100 µM (inactive); with NCI-H226, 80.4 µM (inactive); in the assay with CAKI-1, > 100 µM (inactive); with UACC-257, > 100 µM (inactive); in the assay on HT-29 it was 65.2 µM (inactive); with SF-268, > 100 µM (inactive). Also, the GI50 was 48.5 µM (inactive) with MDA-MB-435; > 100 µM (inactive) with OVCAR-5; more than 100 µM with HCT-15; > 100 µM (inactive) with OVCAR-8; > 100 µM (inactive) with SN12C.

For `O=C(c1ccc(-c2ccccc2)cc1)N(Cc1cccnc1)C(=S)N(Cc1cccnc1)C(=O)c1ccc(-c2ccccc2)cc1`, the GI50 with LOX IMVI, with EKVX, with HOP-62, in the assay on CCRF-CEM, with UACC-62 and in the assay with SF-295 was > 100 µM (inactive) each time. For the same compound, the GI50 was 56.6 µM (inactive) in the assay with KM12; 76.2 µM (inactive) in the assay on NCI-H226; 27.1 µM (inactive) in the assay with CAKI-1; 41.6 µM (inactive) in the assay on MCF7; > 100 µM (inactive) with UACC-257; 48.5 µM (inactive) with HT-29. The GI50 was > 100 µM (inactive) in the assay on SF-268; 54.6 µM (inactive) with MDA-MB-435; > 100 µM (inactive) in the assay on OVCAR-5; 87.3 µM in the assay on HCT-15; > 100 µM (inactive) in the assay on OVCAR-8; > 100 µM (inactive) in the assay with SN12C. The GI50 in the assay with K562 was 0.394 µM (active).

Consider `O=C(O)c1ccccc1NS(=O)(=O)c1ccc([N+](=O)[O-])cc1`, for which the GI50 in the assay with LOX IMVI, in the assay with EKVX, in the assay on RXF 393, in the assay on HOP-62, in the assay on CCRF-CEM and with UACC-62 was > 100 µM (inactive) each time. In addition, the GI50 in the assay with SF-295, in the assay with KM12, in the assay with NCI-H226, in the assay with CAKI-1, in the assay with UACC-257 and in the assay with HT-29 was > 100 µM (inactive) each time. The GI50 in the assay on SF-268 is > 100 µM (inactive); with OVCAR-5, > 100 µM (inactive); in the assay with HCT-15, more than 100 µM; with OVCAR-8, > 100 µM (inactive); with SN12C, > 100 µM (inactive); in the assay with K562, > 100 µM (inactive).

Turning to `CC(=O)C(C)(C)CCC(C)(C)C(C)=O`, the GI50 with LOX IMVI is > 100 µM (inactive); in the assay on EKVX, > 100 µM (inactive); in the assay with RXF 393 it was < 0.01 µM (active); in the assay on HOP-62, > 100 µM (inactive); in the assay with CCRF-CEM it was > 100 µM (inactive); in the assay with UACC-62, > 100 µM (inactive). Also, the GI50 in the assay on SF-295, in the assay with KM12, in the assay on NCI-H226, in the assay on CAKI-1, in the assay with MCF7 and in the assay on UACC-257 was > 100 µM (inactive) in each case. The GI50 with HT-29 was > 100 µM (inactive); with SF-268, > 100 µM (inactive); in the assay on OVCAR-5 it was > 100 µM (inactive); in the assay with HCT-15 it was more than 100 µM; in the assay with OVCAR-8, > 100 µM (inactive); in the assay on SN12C, > 100 µM (inactive). Further, the GI50 with K562 is > 100 µM (inactive).

As to `COCc1nc2c(OC)c(-c3nc4ccc(N5CCN(C)CC5)nc4[nH]3)cc(OC)c2n1C`, the GI50 is 19.1 µM (inactive) with LOX IMVI; 21 µM (inactive) in the assay with EKVX; 20.3 µM (inactive) in the assay on RXF 393; 42.3 µM (inactive) in the assay with HOP-62; 21 µM (inactive) in the assay on CCRF-CEM; 20.7 µM (inactive) in the assay on UACC-62. Besides, the GI50 in the assay on SF-295 is 32.1 µM (inactive); with KM12 it was 24 µM (inactive); in the assay with NCI-H226, 22.4 µM (inactive); with CAKI-1, 40.7 µM (inactive); in the assay on UACC-257 it was 17.9 µM (inactive); with HT-29, 19.9 µM (inactive). Moreover, the GI50 is 45.2 µM (inactive) in the assay with SF-268; 20.4 µM (inactive) in the assay on MDA-MB-435; 44.2 µM (inactive) with OVCAR-5; 40.9 µM in the assay on HCT-15; 33.9 µM (inactive) in the assay with OVCAR-8; 80 µM (inactive) in the assay with SN12C. In addition, the GI50 in the assay on K562 is 29.3 µM (inactive).

In the case of `CCOC(=O)N1C(=O)C2C3C=CC(C2C1=O)C1C2C(=O)N(C(=O)OCC)C(=O)C2C31` (centres undefined), the GI50 in the assay with LOX IMVI was > 46.6 µM (inactive); in the assay on EKVX it was > 100 µM (inactive); in the assay with RXF 393, > 100 µM (inactive); in the assay with HOP-62 it was > 100 µM (inactive); with CCRF-CEM, > 93.1 µM (inactive); with UACC-62 it was > 100 µM (inactive). The GI50 in the assay with SF-295, with KM12, in the assay on NCI-H226, with CAKI-1, in the assay with UACC-257 and in the assay on HT-29 was > 100 µM (inactive) each time. For the same compound, the GI50 with SF-268 is > 81.3 µM (inactive); in the assay on OVCAR-5, > 100 µM (inactive); in the assay with HCT-15, more than 47.2 µM; with OVCAR-8, > 100 µM (inactive); with SN12C, > 100 µM (inactive); in the assay with K562 it was > 100 µM (inactive).

In the case of `CCN(CC)c1ccc(/N=C2/C=CC(=O)c3ncccc32)c(C)c1`, the GI50 is 1.91 µM (inactive) in the assay on LOX IMVI; 16.6 µM (inactive) in the assay on EKVX; 3.48 µM (inactive) in the assay on RXF 393; 20.2 µM (inactive) with HOP-62; 2.09 µM (inactive) in the assay on CCRF-CEM; 5.06 µM (inactive) in the assay with UACC-62. Further, the GI50 in the assay with SF-295 is 10.7 µM (inactive); in the assay with KM12 it was 13.8 µM (inactive); with NCI-H226 it was 18.5 µM (inactive); in the assay with CAKI-1 it was 11 µM (inactive); with UACC-257, 4.38 µM (inactive); in the assay with HT-29 it was 15.1 µM (inactive). For the same compound, the GI50 with SF-268 was 8.32 µM (inactive); in the assay with OVCAR-5, 12 µM (inactive); in the assay with HCT-15 it was 3.08 µM; in the assay on OVCAR-8, 3.42 µM (inactive); in the assay on SN12C, 7.38 µM (inactive); in the assay with K562, 2.45 µM (inactive).

For `O=C1c2ccccc2-c2nc3ccncc3n21`, the GI50 with EKVX, in the assay with RXF 393, in the assay on HOP-62, in the assay on CCRF-CEM, with UACC-62 and with SF-295 was > 100 µM (inactive) throughout. Moreover, the GI50 in the assay with KM12, with NCI-H226, in the assay with CAKI-1, in the assay with MCF7, with UACC-257 and in the assay with HT-29 was > 100 µM (inactive) each time. For the same compound, the GI50 in the assay on SF-268 is > 100 µM (inactive); in the assay with OVCAR-5 it was > 100 µM (inactive); in the assay on HCT-15, more than 100 µM; in the assay on OVCAR-8, > 100 µM (inactive); in the assay on SN12C it was > 100 µM (inactive); in the assay on K562, > 100 µM (inactive).

For the compound `COc1cccc2c1[C@H]1OC(=O)NC1CCCCC2` (some centres undefined), the GI50 in the assay with LOX IMVI, with EKVX, in the assay on RXF 393, in the assay on HOP-62, with CCRF-CEM and in the assay on UACC-62 was > 100 µM (inactive) throughout. The GI50 with SF-295, in the assay with KM12, in the assay on NCI-H226, in the assay with CAKI-1, in the assay on UACC-257 and in the assay with HT-29 was > 100 µM (inactive) throughout. Moreover, the GI50 in the assay on SF-268 was > 100 µM (inactive); with OVCAR-5, > 100 µM (inactive); with HCT-15, more than 100 µM; in the assay with OVCAR-8, > 100 µM (inactive); in the assay on SN12C it was > 100 µM (inactive); with K562, > 100 µM (inactive).

Turning to `CN(C)CCNC(=O)c1cccc2ccc(-c3ccc(-c4ccccc4)cc3)nc12`, the GI50 in the assay on LOX IMVI was 1.63 µM (inactive); in the assay with EKVX it was 8.17 µM (inactive); in the assay on RXF 393, 2.22 µM (inactive); in the assay with HOP-62, 3.3 µM (inactive); in the assay with CCRF-CEM, 2.72 µM (inactive); in the assay on UACC-62, 18.2 µM (inactive). The GI50 in the assay with SF-295 is 2.21 µM (inactive); in the assay on KM12 it was 2.09 µM (inactive); with NCI-H226 it was 13.1 µM (inactive); in the assay on CAKI-1, 5.13 µM (inactive); in the assay with UACC-257 it was 1.86 µM (inactive); in the assay on HT-29 it was 1.75 µM (inactive). For the same compound, the GI50 was 3.37 µM (inactive) in the assay with SF-268; 3.92 µM (inactive) with OVCAR-5; 1.98 µM with HCT-15; 2.56 µM (inactive) in the assay with OVCAR-8; 6.59 µM (inactive) in the assay with SN12C; 2.13 µM (inactive) with K562.

`CC(=O)Nc1ccc(/N=N\c2c(O)c(S(=O)(=O)O)cc3cc(S(=O)(=O)O)ccc23)cc1`: the GI50 in the assay with EKVX, in the assay on RXF 393, with HOP-62, with UACC-62, in the assay on SF-295 and with KM12 was > 100 µM (inactive) in each case. The GI50 in the assay on NCI-H226, in the assay with CAKI-1, in the assay on UACC-257, in the assay with HT-29, in the assay on SF-268 and in the assay on MDA-MB-435 was > 100 µM (inactive) each time. Further, the GI50 in the assay on OVCAR-5 is > 100 µM (inactive); in the assay on HCT-15, more than 100 µM; in the assay with OVCAR-8, > 100 µM (inactive); in the assay with SN12C, > 100 µM (inactive); in the assay on K562, > 100 µM (inactive).

The values are drawn from ChEMBL document CHEMBL1201862, “PubChem BioAssay data set” (2004).
